Test results taken from patent publication US6727232B2, “Nucleoside peptide antibiotics of AA-896” (Wyeth Holdings Corporation, priority 2001, dated 2004).
Like-named read-outs stand apart in the source and are kept apart here.

Legend:
Experiment in all cases: Broth dilution MIC
Type in all cases: cell-based
E. faecalis GC 4555 = settings: Enterococcus faecalis, read-out: Antimicrobial Activity (MIC)
Description: (§1) The in vitro antibacterial activity of Example 1 through Example 20 is determined against a spectrum of Gram-positive and Gram-negative bacteria by a standard broth dilution method. Serial dilution of the compounds are made in Mueller-Hinton broth and inoculated with a bacterial suspension. The lowest concentration of compound that inhibited the growth of a bacterial strain after 18 hours of incubation at 35° C. is reported as the minimal inhibitory concentration (MIC) for that strain.

S. aureus GC 4536 = settings: Staphylococcus aureus, read-out: Antimicrobial Activity (MIC)
Description: as §1

S. aureus GC 2216 = settings: Staphylococcus aureus, read-out: Antimicrobial Activity (MIC)
Description: as §1

K. pneumoniae GC 4534 = settings: Klebsiella pneumoniae, read-out: Antimicrobial Activity (MIC)
Description: as §1

E. cloacae GC 3783 = settings: Enterobacter cloacae, read-out: Antimicrobial Activity (MIC)
Description: as §1

E. coli GC 4560 = settings: Escherichia coli, GC4560, 18 h, read-out: Antimicrobial Activity (MIC)
Description: as §1

E. coli GC 4559 = settings: Escherichia coli, read-out: Antimicrobial Activity (MIC)
Description: as §1

E. coli GC 3226 = settings: Escherichia coli, read-out: Antimicrobial Activity (MIC)
Description: as §1

P. aeruginosa GC 4532 = settings: Pseudomonas aeruginosa, read-out: Antimicrobial Activity (MIC)
Description: as §1

E. faecalis GC 2242 = settings: Enterococcus faecalis, read-out: Antimicrobial Activity (MIC)
Description: as §1

S. marcescens GC 4077 = settings: Serratia marcescens, read-out: Antimicrobial Activity (MIC)
Description: as §1

P. aeruginosa GC 2214 = settings: Pseudomonas aeruginosa, read-out: Antimicrobial Activity (MIC)
Description: as §1

CNS GC 4537 = settings: read-out: Antimicrobial Activity (MIC)
Description: as §1

M. morganii GC 4531 = settings: Morganella morganii, read-out: Antimicrobial Activity (MIC)
Description: as §1

E. coli GC 2203 = settings: Escherichia coli, read-out: Antimicrobial Activity (MIC)
Description: as §1

P. rettgeri GC 4530 = settings: Providencia rettgeri, read-out: Antimicrobial Activity (MIC)
Description: as §1

CNS GC 4547 = settings: read-out: Antimicrobial Activity (MIC)
Description: as §1

E. faecalis GC 842 = settings: Enterococcus faecalis, read-out: Antimicrobial Activity (MIC)
Description: as §1

CNS GC 4538 = settings: read-out: Antimicrobial Activity (MIC)
Description: as §1

S. aureus GC 1131 = settings: Staphylococcus aureus, read-out: Antimicrobial Activity (MIC)
Description: as §1

[1] = GC4555, E. faecalis GC 4555, Mueller-Hinton broth, 18 hours at 35° C.
[2] = GC4536, S. aureus GC 4536, Mueller-Hinton broth, 18 hours at 35° C.
[3] = GC2216, S. aureus GC 2216, Mueller-Hinton broth, 18 hours at 35° C.
[4] = GC4534, K. pneumoniae GC 4534, Mueller-Hinton broth, 18 hours at 35° C.
[5] = GC3783, E. cloacae GC 3783, Mueller-Hinton broth, 18 hours at 35° C.
[6] = GC4559, E. coli GC 4559, Mueller-Hinton broth, 18 hours at 35° C.
[7] = GC3226, E. coli GC 3226, Mueller-Hinton broth, 18 hours at 35° C.
[8] = GC4532, P. aeruginosa GC 4532, Mueller-Hinton broth, 18 hours at 35° C.
[9] = GC2242, E. faecalis GC 2242, Mueller-Hinton broth, 18 hours at 35° C.
[10] = GC4077, S. marcescens GC 4077, Mueller-Hinton broth, 18 hours at 35° C.
[11] = GC2214, P. aeruginosa GC 2214, Mueller-Hinton broth, 18 hours at 35° C.
[12] = CNS GC 4537, Mueller-Hinton broth, 18 hours at 35° C.
[13] = GC4531, M. morganii GC 4531, Mueller-Hinton broth, 18 hours at 35° C.
[14] = GC2203, E. coli GC 2203, Mueller-Hinton broth, 18 hours at 35° C.
[15] = GC4530, P. rettgeri GC 4530, Mueller-Hinton broth, 18 hours at 35° C.
[16] = CNS GC 4547, Mueller-Hinton broth, 18 hours at 35° C.
[17] = GC842, E. faecalis GC 842, Mueller-Hinton broth, 18 hours at 35° C.
[18] = CNS GC 4538, Mueller-Hinton broth, 18 hours at 35° C.
[19] = GC1131, S. aureus GC 1131, Mueller-Hinton broth, 18 hours at 35° C.

Measured: MIC

CCCCCCCCCCCCN1C(=O)C([C@@H](OC2O[C@H](CN)[C@H](O)[C@H]2OC)[C@H]2O[C@@H](n3ccc(=O)[nH]c3=O)[C@H](O)[C@@H]2O)N(CCCNC(=O)C(NC(=O)C(NC(=O)NC(C(=O)O)C(C)C)C2CCNC(=N)N2)C(O)C(C)C)C1=O (stereo partly drawn) [Example 5, 14-[5-((R)-{[(3R,4S,5R)-5-(Aminomethyl)-4-hydroxy-3-methoxytetrahydro-2-furanyl]oxy}{(2S,3S,4R,5R)-5-[2,4-dioxo-3,4-dihydro-1 (2H)-pyrimidinyl]-3,4-dihydroxytetrahydro-2-furanyl}methyl)-3-dodecyl-2,4-dioxo-1-imidazolidinyl]-9-(1-hydroxy-2-methylpropyl)-6-(2-iminohexahydro-4-pyrimidinyl)-2-isopropyl-4,7,10-trioxo-3,5,8,11-tetraazatetradecan-1-oic acid]
4 µg/mL: E. coli GC 4560
> 32 µg/mL: E. faecalis GC 4555; [1] | S. aureus GC 4536; [2] | S. aureus GC 2216; [3] | K. pneumoniae GC 4534; [4] | E. cloacae GC 3783; [5] | E. coli GC 4559; [6] | E. coli GC 3226; [7] | P. aeruginosa GC 4532; [8] | E. faecalis GC 2242; [9] | S. marcescens GC 4077; [10] | P. aeruginosa GC 2214; [11] | CNS GC 4537; [12] | M. morganii GC 4531; [13] | E. coli GC 2203; [14] | P. rettgeri GC 4530; [15] | CNS GC 4547; [16] | E. faecalis GC 842; [17] | CNS GC 4538; [18] | S. aureus GC 1131; [19]

CO[C@H]1C(O[C@H](C(C(=O)O)N(CCCNC(=O)C(NC(=O)C(NC(=O)NC(C(=O)O)C(C)C)C2CCNC(=N)N2)C(O)C(C)C)Cc2ccccc2)[C@H]2O[C@@H](n3ccc(=O)[nH]c3=O)[C@H](O)[C@@H]2O)O[C@H](CN)[C@@H]1O (stereo partly drawn) [Example 6, 16-((R)-{[(3R,4S,5R)-5-(Aminomethyl)-4-hydroxy-3-methoxytetrahydro-2-furanyl]oxy}{(2S,3S,4R,5R)-5-[2,4-dioxo-3,4-dihydro-1 (2H)-pyrimidinyl]-3,4-dihydroxytetrahydro-2-furanyl}methyl)-15-benzyl-9-(1-hydroxy-2-methylpropyl)-6-(2-iminohexahydro-4-pyrimidinyl)-2-isopropyl-4,7,10-trioxo-3,5,8,11,15-pentaazaheptadecane-1,17-dioic Acid]
> 32 µg/mL: E. faecalis GC 4555; [1] | S. aureus GC 4536; [2] | S. aureus GC 2216; [3] | K. pneumoniae GC 4534; [4] | E. cloacae GC 3783; [5] | E. coli GC 4559; [6] | E. coli GC 3226; [7] | P. aeruginosa GC 4532; [8] | E. faecalis GC 2242; [9] | S. marcescens GC 4077; [10] | P. aeruginosa GC 2214; [11] | CNS GC 4537; [12] | M. morganii GC 4531; [13] | E. coli GC 2203; [14] | P. rettgeri GC 4530; [15] | CNS GC 4547; [16] | E. faecalis GC 842; [17] | CNS GC 4538; [18] | S. aureus GC 1131; [19]
2 µg/mL: E. coli GC 4560

CCCCCCCCCCCCN(CCCNC(=O)C(NC(=O)C(NC(=O)NC(C(=O)O)C(C)C)C1CCNC(=N)N1)C(O)C(C)C)C(C(=O)O)[C@@H](OC1O[C@H](CN)[C@H](O)[C@H]1OC)[C@H]1O[C@@H](n2ccc(=O)[nH]c2=O)[C@H](O)[C@@H]1O (stereo partly drawn) [Example 7, 16-((R)-{[(3R,4S,5R)-5-(Aminomethyl)-4-hydroxy-3-methoxytetrahydro-2-furanyl]oxy}{(2S,3S,4R,5R)-5-[2,4-dioxo-3,4-dihydro-1 (2H)-pyrimidinyl]-3,4-dihydroxytetrahydro-2-furanyl}methyl)-15-dodecyl-9-(1-hydroxy-2-methylpropyl)-6-(2-iminohexahydro-4-pyrimidinyl)-2-isopropyl-4,7,10-trioxo-3,5,8,11,15-pentaazaheptadecane-1,17-dioic Acid]
16 µg/mL: E. coli GC 4560
> 32 µg/mL: E. faecalis GC 4555; [1] | S. aureus GC 4536; [2] | S. aureus GC 2216; [3] | K. pneumoniae GC 4534; [4] | E. cloacae GC 3783; [5] | E. coli GC 4559; [6] | E. coli GC 3226; [7] | P. aeruginosa GC 4532; [8] | E. faecalis GC 2242; [9] | S. marcescens GC 4077; [10] | P. aeruginosa GC 2214; [11] | CNS GC 4537; [12] | M. morganii GC 4531; [13] | E. coli GC 2203; [14] | P. rettgeri GC 4530; [15] | CNS GC 4547; [16] | E. faecalis GC 842; [17] | CNS GC 4538; [18] | S. aureus GC 1131; [19]

CO[C@H]1C(O[C@H](C(C(=O)O)N(CCCCCCCCCCCCN2CCOCC2)CCCNC(=O)C(NC(=O)C(NC(=O)NC(C(=O)O)C(C)C)C2CCNC(=N)N2)C(O)C(C)C)[C@H]2O[C@@H](n3ccc(=O)[nH]c3=O)[C@H](O)[C@@H]2O)O[C@H](CN)[C@@H]1O (stereo partly drawn) [Example 8, 16-((R)-{[(3R,4S,5R)-5-(Aminomethyl)-4-hydroxy-3-methoxytetrahydro-2-furanyl]oxy}{(2S,3S,4R,5R)-5-[2,4-dioxo-3,4-dihydro-1 (2H)-pyrimidinyl]-3,4-dihydroxytetrahydro-2-furanyl}methyl)-9-(1-hydroxy-2-methylpropyl)-6-(2-iminohexahydro-4-pyrimidinyl)-2-isopropyl-15-[12-(4-morpholinyl)dodecyl]-4,7,10-trioxo-3,5,8,11,15-pentaazaheptadecane-1,17-dioic Acid]
> 32 µg/mL: E. faecalis GC 4555; GC4555, 18 h | S. aureus GC 4536; GC4536, 18 h | S. aureus GC 2216; GC2216, 18 h | K. pneumoniae GC 4534; GC4534, 18 h | E. cloacae GC 3783; GC3783, 18 h | E. coli GC 4560 | E. coli GC 4559; GC4559, 18 h | E. coli GC 3226; GC3226, 18 h | P. aeruginosa GC 4532; GC4532, 18 h | E. faecalis GC 2242; GC2242, 18 h | S. marcescens GC 4077; GC4077, 18 h | P. aeruginosa GC 2214; GC2214, 18 h | CNS GC 4537; 18 h | M. morganii GC 4531; GC4531, 18 h | E. coli GC 2203; GC2203, 18 h | P. rettgeri GC 4530; GC4530, 18 h | CNS GC 4547; 18 h | E. faecalis GC 842; GC842, 18 h | CNS GC 4538; 18 h | S. aureus GC 1131; GC1131, 18 h
